Article PMC12675575, “A BRET biosensor for measuring uncompetitive engagement of PRMT5 complexes in cells” (Nature Communications, 2025)
Where “and” joins values, the source holds several entries; their conditions need not be identical. Identical values can stand only once. Like-named read-outs stand apart in the source and are kept apart here. Values belong to the molecule of their own block, whether it stands above or below them.

Tests used:
SDMA in MTAP WT cells [1] = tested on: SDMA in MTAP WT cells; design: method as in ref 9 (a number printed in a supplementary file, which may have a reference list of its own: not looked up in the article's list); conditions: read-out: In-Cell Western (nM), SDMA EC50; cited from earlier work
PRMT5 [2] = conditions: 3H-SAM to peptide substrate; read-out: Biochemical (nM), IC50; cited from earlier work
[3] = target: NanoLuc-PRMT5 co-expressed with WDR77 (Homo sapiens, UniProt O14744); assay: Live-cell NanoBRET target engagement with BRET probe CBH-002 in HEK293 cells expressing NanoLuc-PRMT5 and unlabeled WDR77; format: cell-based; design: host or cells: HEK293; conditions: for EC50: HEK293, competitive displacement of CBH-002, 2 h, n=3
Procedure: HEK293 cells (ATCC) were cultured in DMEM (Thermo Fisher) + 10% (v/v) FBS (Seredigm), and HCT116 cells (Horizon Discovery, #PAR-034 and #R02-033) were cultured in McCoy’s 5A (Thermo Fisher) + 10% FBS, with incubation in a humidified, 37 °C/5% CO2 incubator. Cells were split 1–3 days prior to performing experiments and used at roughly 80% confluency. […] Cells were transfected according to the manufacturer’s protocol using FuGENE HD (Promega). NanoLuc fusion DNA was diluted into Transfection Carrier DNA (Promega) in Opti-MEM at a ratio of 1:9 (mass/mass), and FuGENE HD was added at a ratio of 1:3 (μg DNA:μL lipid). […] Formed complexes were combined with cells resuspended to a density of 2 × 10^5 cells/mL in Opti-MEM + 1% FBS at a ratio of 1:20 (vol:vol). […] Cells were seeded at a density of 2 × 10^5 cells/mL in Opti-MEM + 1% FBS in 100 μL (96-well). The BRET probe CBH-002 was prepared first as a 100× stock in 100% DMSO (Sigma) and then diluted to a 20× stock in NanoBRET Tracer Dilution buffer (Promega). Test compounds were prepared as 1000× stocks in 100% DMSO and diluted to 10× stocks in Opti-MEM to prepare working stocks. […] NanoBRET Complete 3x Substrate was prepared by combining Nano-Glo Substrate and Extracellular NanoLuc Inhibitor in Opti-MEM, according to the manufacturer’s protocol (Promega).
BRET ratio values were calculated by dividing the acceptor by the donor signal, and raw BRET was converted to milli-BRET (mBRET) units (mBu) by multiplying by 1000.
EC50 values were obtained by fitting the BRET probe and compound affinity curves to a sigmoidal four-parameter fit model in Graphpad Prism:1 Y=Ymin+Ymax−Ymin/1+10^LogEC50−Xh where h is the Hill Slope.
When normalized BRET was used, mBRET values were normalized using2 NormalizedBRET%=(Y−BRETmin)/BRETmax−BRETmin where y = mBRET in the presence of test compound and BRET probe, BRETmin = mBRET at the highest concentration (saturating) of test compound and BRET probe, and BRETmax = mBRET in the presence of vehicle (DMSO) and BRET probe.
Normalized concentration-response curves showing full competition were fit using a 2-parameter model:3 Y=100/1+10^LogEC50−Xh
In situations where only partial competition was observed, the normalized concentration-response curves were fit using Eq. 1 and where Ymin was constrained to >0.

[4] = tested on: SmBB' dimethylation in MCF7 cells; design: method as in ref 4 (a number printed in a supplementary file, which may have a reference list of its own: not looked up in the article's list); conditions: read-out: In-Cell Western (nM), EC50; cited from earlier work
PRMT5:MEP50 complex = target: PRMT5:MEP50 complex; design: method as in ref 4 (a number printed in a supplementary file, which may have a reference list of its own: not looked up in the article's list); conditions: read-out: SPR (pM), Kd; cited from earlier work
[5] = target: NLuc-PRMT5 co-expressed with WDR77 (Homo sapiens, UniProt O14744); assay: Compound EC50 titrations against MTA, NanoBRET in HEK293 (NLuc-PRMT5 + WDR77), with global Gaddum/Schild or Morrison fits; conditions: for Schild slope: Global Gaddum/Schild EC50 shift fit, MTA titration; for Right-shift in binding/potency on addition of MTA: HEK293, 300 µM exogenous MTA; for EC50 fold change (EC50 at 300 μM MTA versus vehicle): negative = enhanced potency under high MTA; for Hill slope (Global/Schild fit): constant across [MTA], constrained to 1 for PF06939999 and GSK3326595
Procedure: MTA (Sigma) was prepared at 100× in 100% DMSO and diluted to 10× in Opti-MEM. Inhibitors were run as 11 pt, 3-fold dilution curves and MTA as a seven point, 3-fold dilution curve starting at 100 μM. Cells were incubated for 2 h at 37 °C and 5% CO2 prior to BRET measurements. Data was normalized using Eq. (2) where BRETMIN = saturating compound + maximum [MTA], and BRETMAX = BRET signal under vehicle conditions. Curves were fit using Eq. (3), and EC50 values were plotted against MTA concentration to determine the linear range of MTA detection.

SDMA in MTAP WT cells [6] = tested on: SDMA in MTAP WT cells; design: method as in ref 7,8 (a number printed in a supplementary file, which may have a reference list of its own: not looked up in the article's list); conditions: read-out: In-Cell Western (nM), SDMA IC50; cited from earlier work
PRMT5/MEP50 = target: PRMT5/MEP50; design: method as in ref 7,8 (a number printed in a supplementary file, which may have a reference list of its own: not looked up in the article's list); conditions: 20 μM SAM preincubation; read-out: SPR; cited from earlier work
PRMT5–MEP50 = conditions: cited from earlier work; for IC50: read-out: Biochemical (nM), IC50
MTAP WT cell lines = tested on: MTAP WT cell lines; design: method as in ref 7,8 (a number printed in a supplementary file, which may have a reference list of its own: not looked up in the article's list); conditions: 10 day viability, read-out: Proliferation (nM), IC50; cited from earlier work
MTAP del cell lines = tested on: MTAP del cell lines; design: method as in ref 7,8 (a number printed in a supplementary file, which may have a reference list of its own: not looked up in the article's list); conditions: 10 day viability, read-out: Proliferation (nM), IC50; cited from earlier work
SDMA in MTAP del cells = tested on: SDMA in MTAP del cells; design: method as in ref 7,8 (a number printed in a supplementary file, which may have a reference list of its own: not looked up in the article's list); conditions: read-out: In-Cell Western (nM), SDMA IC50; cited from earlier work
SDMA levels in A427 = tested on: SDMA levels in A427; design: method as in ref 5,6 (a number printed in a supplementary file, which may have a reference list of its own: not looked up in the article's list); conditions: read-out: In-Cell Western (nM), IC50; cited from earlier work
PRMT5 [7] = target: PRMT5; design: method as in ref 5,6 (a number printed in a supplementary file, which may have a reference list of its own: not looked up in the article's list); conditions: single-cycle kinetic analysis; read-out: SPR (pM), Kd; cited from earlier work

Sequence of NanoLuc-PRMT5 co-expressed with WDR77 (O14744 whole entry, the tested form may be a part): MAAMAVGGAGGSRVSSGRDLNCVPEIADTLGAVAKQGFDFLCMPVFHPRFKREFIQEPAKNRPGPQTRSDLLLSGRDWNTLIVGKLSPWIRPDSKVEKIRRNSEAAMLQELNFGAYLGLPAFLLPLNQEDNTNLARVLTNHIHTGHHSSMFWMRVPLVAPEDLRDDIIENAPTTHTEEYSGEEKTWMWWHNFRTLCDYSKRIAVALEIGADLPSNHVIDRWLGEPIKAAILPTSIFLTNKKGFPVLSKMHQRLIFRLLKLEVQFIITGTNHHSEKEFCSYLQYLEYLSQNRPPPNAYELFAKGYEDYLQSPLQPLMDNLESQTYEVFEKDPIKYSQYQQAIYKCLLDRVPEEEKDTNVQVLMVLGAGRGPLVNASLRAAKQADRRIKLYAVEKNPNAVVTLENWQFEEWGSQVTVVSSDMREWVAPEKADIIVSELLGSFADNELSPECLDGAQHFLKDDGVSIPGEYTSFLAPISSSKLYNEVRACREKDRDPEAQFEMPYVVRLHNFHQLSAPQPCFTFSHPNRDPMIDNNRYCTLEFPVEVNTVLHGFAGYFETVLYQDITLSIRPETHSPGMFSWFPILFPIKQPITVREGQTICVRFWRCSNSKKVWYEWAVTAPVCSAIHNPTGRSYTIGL
Sequence of NanoLuc-PRMT5 co-expressed with WDR77 (Q9BQA1 whole entry partner, the tested form may be a part): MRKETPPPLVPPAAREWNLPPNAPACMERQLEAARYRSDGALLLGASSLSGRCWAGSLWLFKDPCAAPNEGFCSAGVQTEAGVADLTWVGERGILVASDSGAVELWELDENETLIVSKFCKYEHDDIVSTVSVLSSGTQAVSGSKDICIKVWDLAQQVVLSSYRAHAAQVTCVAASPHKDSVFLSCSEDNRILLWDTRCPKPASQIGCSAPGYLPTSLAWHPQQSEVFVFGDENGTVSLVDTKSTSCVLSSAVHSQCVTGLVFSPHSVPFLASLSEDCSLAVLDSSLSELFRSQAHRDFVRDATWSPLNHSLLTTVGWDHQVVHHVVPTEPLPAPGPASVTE
Sequence of NLuc-PRMT5 co-expressed with WDR77 (O14744 whole entry): as the sequence (O14744 whole entry, the tested form may be a part) above
Sequence of NLuc-PRMT5 co-expressed with WDR77 (Q9BQA1 whole entry partner): as the sequence (Q9BQA1 whole entry partner, the tested form may be a part) above

Compound: Cc1cc(NC(=O)C(=O)N2CC(C)CCC2c2ccc3scnc3c2)cnc1N (centres unmarked) [TNG908]
EC50 (SDMA in MTAP WT cells [1]): 135 nM

remaining activity at […] ([3]; HEK293, log([compound]), uM 0.0458, vehicle = 100, read-out: Normalized BRET, Bio rep 1-3): 34%
remaining activity at […] ([3]; HEK293, log([compound]), uM 0.52, vehicle = 100, read-out: Normalized BRET, Bio rep 1-3): 24.1%
remaining activity at 0.3715 µM ([3]; HEK293, log([compound]), uM -0.43, vehicle = 100, read-out: Normalized BRET, Bio rep 1-3): 53.7%
remaining activity at […] ([3]; HEK293, log([compound]), uM -0.91, vehicle = 100, read-out: Normalized BRET, Bio rep 1-3): 66.1%
remaining activity at 0.04074 µM ([3]; HEK293, log([compound]), uM -1.39, vehicle = 100, read-out: Normalized BRET, Bio rep 1-3): 81.4%
remaining activity at 0.0138 µM ([3]; HEK293, log([compound]), uM -1.86, vehicle = 100, read-out: Normalized BRET, Bio rep 1-3): 91.4%
remaining activity at 0.004571 µM ([3]; HEK293, log([compound]), uM -2.34, vehicle = 100, read-out: Normalized BRET, Bio rep 1-3): 97.7%
remaining activity at 0.001514 µM ([3]; HEK293, log([compound]), uM -2.82, vehicle = 100, read-out: Normalized BRET, Bio rep 1-3): 102%
remaining activity at 0.0005129 µM ([3]; HEK293, log([compound]), uM -3.29, vehicle = 100, read-out: Normalized BRET, Bio rep 1-3): 107%
remaining activity at 0.0001698 µM ([3]; HEK293, log([compound]), uM -3.77, vehicle = 100, read-out: Normalized BRET, Bio rep 1-3): 102%
EC50 ([3]; NanoBRET EC50 (95% CI, nM)): 467 nM
EC50 ([5]; EC50, [MTA] 0 μM, HEK293, 30 nM CBH-002): 348 nM
EC50 ([5]; EC50, nM (MTA = 0), Global/Schild fit, HEK293): 365 nM
Schild slope ([5]; HEK293): 1.1 (0.93 - 1.31)
A2 (concentration of MTA needed to shift the dose response curve by a factor of 2) ([5]; Global/Schild fit, HEK293): 61 (46-79) M
Right-shift in binding/potency on addition of MTA [5]: 6 fold
EC50 fold change (EC50 at 300 μM MTA versus vehicle) ([5]; HEK293): 6 and 6.1
Hill slope ([5]; [MTA] 0 μM, HEK293): 0.62
Hill slope ([5]; [MTA] 11.11 μM, HEK293): 0.55
Hill slope ([5]; [MTA] 100 μM, HEK293): 0.62
Hill slope ([5]; [MTA] 300 μM, HEK293): 0.64
Hill slope (Global/Schild fit) [5]: 0.55 (0.51 - 0.59)
Compound: Nc1ncnc2c1ccn2[C@@H]1O[C@H]([C@H](O)c2ccccc2)[C@@H](O)[C@H]1O [LLY-283]
IC50 (PRMT5 [2]): 22 nM
EC50 [4]: 25 nM
Kd (PRMT5:MEP50 complex): 6000 pM

Compound: Cn1ncc(-c2ccc3c(=O)[nH]nc(CN)c3c2)c1-c1c(F)c(Cl)cc(OC2CC2)c1C#N [MRTX1719]
IC50 (SDMA in MTAP WT cells [6]): 653 nM
Kd (PRMT5/MEP50): 0.0094 nM
IC50 (PRMT5–MEP50; MTA): 3.6 nM
IC50 (PRMT5–MEP50; SAM): 20.4 nM
Enhancement of biochemical IC50 in the presence of MTA (PRMT5–MEP50): 5 fold
IC50 (MTAP WT cell lines): 890 nM
IC50 (MTAP del cell lines): 12 nM
IC50 (SDMA in MTAP del cells): 8 nM

remaining activity at […] ([3]; HEK293, log([compound]), uM -0.48, vehicle = 100, read-out: Normalized BRET, Bio rep 1-3): 0.95%
remaining activity at 0.1122 µM ([3]; HEK293, log([compound]), uM -0.95, vehicle = 100, read-out: Normalized BRET, Bio rep 1-3): 2.4%
remaining activity at 0.03715 µM ([3]; HEK293, log([compound]), uM -1.43, vehicle = 100, read-out: Normalized BRET, Bio rep 1-3): 5.9%
remaining activity at […] ([3]; HEK293, log([compound]), uM -1.91, vehicle = 100, read-out: Normalized BRET, Bio rep 1-3): 11.6%
remaining activity at 0.004074 µM ([3]; HEK293, log([compound]), uM -2.39, vehicle = 100, read-out: Normalized BRET, Bio rep 1-3): 22.9%
remaining activity at 0.00138 µM ([3]; HEK293, log([compound]), uM -2.86, vehicle = 100, read-out: Normalized BRET, Bio rep 1-3): 51.1%
remaining activity at 0.0004571 µM ([3]; HEK293, log([compound]), uM -3.34, vehicle = 100, read-out: Normalized BRET, Bio rep 1-3): 72.7%
remaining activity at 0.0001514 µM ([3]; HEK293, log([compound]), uM -3.82, vehicle = 100, read-out: Normalized BRET, Bio rep 1-3): 89%
remaining activity at 51.29 pM ([3]; HEK293, log([compound]), uM -4.29, vehicle = 100, read-out: Normalized BRET, Bio rep 1-3): 98.4%
remaining activity at 16.98 pM ([3]; HEK293, log([compound]), uM -4.77, vehicle = 100, read-out: Normalized BRET, Bio rep 1-3): 102%
EC50 ([3]; read-out: NanoBRET EC50 (95% CI)): 1.7 nM
Schild slope ([5]; HEK293): 1.15 (0.88 - 1.51)
A2 (concentration of MTA needed to shift the dose response curve by a factor of 2) ([5]; Global/Schild fit, HEK293): 172 (137 – 211) M
Right-shift in binding/potency on addition of MTA [5]: 3 fold
EC50 fold change (EC50 at 300 μM MTA versus vehicle) ([5]; HEK293): 3 and 2.8
Hill slope ([5]; [MTA] 0 μM, HEK293): 0.97
Hill slope ([5]; [MTA] 11.11 μM, HEK293): 0.99
Hill slope ([5]; [MTA] 100 μM, HEK293): 0.79
Hill slope ([5]; [MTA] 300 μM, HEK293): 0.76
Hill slope (Global/Schild fit) [5]: 1
Compound: Nc1ncnc2c1ccn2C1OC(C(O)c2ccccc2)C(O)C1O (centres unmarked) [PF-06939999]
IC50 (SDMA levels in A427): 1.1 nM
Kd (PRMT5 [7]): 5.8 pM
